# Reference: ChEMBL document CHEMBL4130348, “Structure-activity relationship investigation for benzonaphthyridinone derivatives as novel potent Bruton's tyrosine kinase (BTK) irreversible inhibitors” (Eur J Med Chem, 2017)
# How the values were obtained:
# [1] = molecular target: Tyrosine-protein kinase Blk (Homo sapiens, UniProt P51451); experiment: Inhibition of recombinant full length His-tagged human BLK expressed in baculovirus expression system using poly (4:1 Glu, Tyr) as substrate preincubated for 1 hr followed by substrate addition measured after 1 hr by ADP-glo assay
# Chain of Tyrosine-protein kinase Blk (P51451 whole entry): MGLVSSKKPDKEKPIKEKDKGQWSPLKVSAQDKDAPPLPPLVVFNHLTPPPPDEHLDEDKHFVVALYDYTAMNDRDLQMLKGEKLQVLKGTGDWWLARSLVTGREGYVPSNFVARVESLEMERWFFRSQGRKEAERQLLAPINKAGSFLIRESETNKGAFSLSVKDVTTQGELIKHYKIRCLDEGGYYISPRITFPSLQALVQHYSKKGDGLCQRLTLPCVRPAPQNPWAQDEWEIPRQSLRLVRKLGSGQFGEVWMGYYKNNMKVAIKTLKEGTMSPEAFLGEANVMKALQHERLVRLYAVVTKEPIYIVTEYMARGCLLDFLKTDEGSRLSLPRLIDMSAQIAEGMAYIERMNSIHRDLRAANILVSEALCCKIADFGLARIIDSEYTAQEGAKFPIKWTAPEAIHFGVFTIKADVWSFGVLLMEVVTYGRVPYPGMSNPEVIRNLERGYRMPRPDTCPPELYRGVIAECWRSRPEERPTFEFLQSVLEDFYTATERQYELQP
# [2] = molecular target: T1, Tyrosine-protein kinase JAK3 (Homo sapiens, UniProt P52333); experiment: Inhibition of recombinant GST-tagged human JAK3 expressed in baculovirus expression system using poly (4:1 Glu, Tyr) as substrate preincubated for 1 hr followed by substrate addition measured after 1 hr by ADP-glo assay
# T1 sequence (P52333 whole entry): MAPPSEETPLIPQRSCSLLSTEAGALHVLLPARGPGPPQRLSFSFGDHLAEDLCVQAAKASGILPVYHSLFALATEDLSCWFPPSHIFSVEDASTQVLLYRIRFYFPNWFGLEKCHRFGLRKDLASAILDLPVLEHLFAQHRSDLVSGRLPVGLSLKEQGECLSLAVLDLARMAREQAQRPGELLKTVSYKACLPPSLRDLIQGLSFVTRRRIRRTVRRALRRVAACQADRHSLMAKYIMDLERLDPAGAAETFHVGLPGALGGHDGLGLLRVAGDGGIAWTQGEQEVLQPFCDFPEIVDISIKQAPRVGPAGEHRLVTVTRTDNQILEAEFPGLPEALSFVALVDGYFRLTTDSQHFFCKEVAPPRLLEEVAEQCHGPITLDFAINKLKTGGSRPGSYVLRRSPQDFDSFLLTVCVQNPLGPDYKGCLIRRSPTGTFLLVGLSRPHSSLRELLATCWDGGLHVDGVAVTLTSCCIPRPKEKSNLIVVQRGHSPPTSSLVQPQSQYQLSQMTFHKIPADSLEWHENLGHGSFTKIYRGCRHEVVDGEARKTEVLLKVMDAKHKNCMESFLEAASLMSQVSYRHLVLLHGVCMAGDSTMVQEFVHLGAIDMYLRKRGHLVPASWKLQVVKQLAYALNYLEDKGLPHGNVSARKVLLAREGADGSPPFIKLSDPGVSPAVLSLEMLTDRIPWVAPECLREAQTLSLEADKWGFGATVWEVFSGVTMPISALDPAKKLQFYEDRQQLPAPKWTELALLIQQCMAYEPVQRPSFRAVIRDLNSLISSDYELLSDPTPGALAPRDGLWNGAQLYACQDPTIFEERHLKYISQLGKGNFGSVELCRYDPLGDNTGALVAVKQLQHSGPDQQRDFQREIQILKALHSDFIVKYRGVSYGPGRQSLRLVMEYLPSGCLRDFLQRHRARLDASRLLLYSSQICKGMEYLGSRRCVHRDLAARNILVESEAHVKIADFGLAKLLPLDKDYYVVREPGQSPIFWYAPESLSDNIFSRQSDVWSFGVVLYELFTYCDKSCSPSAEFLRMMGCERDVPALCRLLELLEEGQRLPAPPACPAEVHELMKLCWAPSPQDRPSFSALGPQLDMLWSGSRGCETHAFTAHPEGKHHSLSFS
# [3] = Antiproliferative activity against mouse BA/F3 cells after 72 hrs by CellTiter-Glo assay; type: cell-based, BaF3
# NALM-6 = experiment: Antiproliferative activity against human NALM6 cells after 72 hrs by CellTiter-Glo assay; type: functional; conditions: NALM-6, 72 h
# [4] = system: Epidermal growth factor receptor (Homo sapiens), P00533 [L858R,T790M]; experiment: Inhibition of TEL-fused EGFR T790M/L858R mutant (unknown origin) expressed in mouse BA/F3 cells after 72 hrs by CellTiter-Glo assay; type: cell-based
# Chain of Epidermal growth factor receptor (Homo sapiens), P00533 [L858R,T790M] (P00533 whole entry T790M/L858R, looked up, the tested form may be a part): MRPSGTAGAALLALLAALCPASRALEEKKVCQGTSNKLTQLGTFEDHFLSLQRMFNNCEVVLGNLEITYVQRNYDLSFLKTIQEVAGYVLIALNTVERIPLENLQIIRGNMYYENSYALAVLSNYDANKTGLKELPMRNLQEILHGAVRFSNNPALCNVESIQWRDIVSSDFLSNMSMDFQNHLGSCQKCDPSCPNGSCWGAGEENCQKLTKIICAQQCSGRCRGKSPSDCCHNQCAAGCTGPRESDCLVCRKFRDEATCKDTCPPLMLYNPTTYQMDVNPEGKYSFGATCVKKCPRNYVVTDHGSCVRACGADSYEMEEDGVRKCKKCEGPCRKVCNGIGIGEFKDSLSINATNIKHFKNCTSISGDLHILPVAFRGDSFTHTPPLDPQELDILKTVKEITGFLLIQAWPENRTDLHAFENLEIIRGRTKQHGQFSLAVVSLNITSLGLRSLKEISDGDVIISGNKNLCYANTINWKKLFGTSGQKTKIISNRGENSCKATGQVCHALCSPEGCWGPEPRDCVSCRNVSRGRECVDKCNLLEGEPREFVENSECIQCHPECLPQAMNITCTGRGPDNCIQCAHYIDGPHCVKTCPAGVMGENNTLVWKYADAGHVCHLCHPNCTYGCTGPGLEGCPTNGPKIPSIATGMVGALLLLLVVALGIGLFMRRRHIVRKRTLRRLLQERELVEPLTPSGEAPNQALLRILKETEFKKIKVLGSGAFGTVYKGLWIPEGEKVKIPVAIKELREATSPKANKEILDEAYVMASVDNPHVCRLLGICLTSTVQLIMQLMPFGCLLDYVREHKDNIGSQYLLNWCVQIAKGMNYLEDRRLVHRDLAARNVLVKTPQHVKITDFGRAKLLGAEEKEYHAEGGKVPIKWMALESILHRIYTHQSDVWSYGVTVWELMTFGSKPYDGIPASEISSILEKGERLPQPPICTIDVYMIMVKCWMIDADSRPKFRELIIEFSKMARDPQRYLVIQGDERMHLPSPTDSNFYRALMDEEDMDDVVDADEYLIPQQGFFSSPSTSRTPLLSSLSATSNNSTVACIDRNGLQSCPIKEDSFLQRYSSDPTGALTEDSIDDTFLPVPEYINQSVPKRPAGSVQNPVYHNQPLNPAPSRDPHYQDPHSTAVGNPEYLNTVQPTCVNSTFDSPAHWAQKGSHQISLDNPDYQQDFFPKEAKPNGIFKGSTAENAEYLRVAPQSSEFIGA
# HCT-116 = experiment: Antiproliferative activity against human HCT116 cells after 72 hrs by CellTiter-Glo assay; type: functional; conditions: HCT-116, 72 h
# OCI-AML2 = experiment: Antiproliferative activity against human OCI-AML2 cells after 72 hrs by CellTiter-Glo assay; type: functional; conditions: OCI-AML2, 72 h
# NAMALVA = experiment: Antiproliferative activity against human NAMALWA cells after 72 hrs by CellTiter-Glo assay; type: functional
# U2932 = experiment: Antiproliferative activity against human U2932 cells after 72 hrs by CellTiter-Glo assay; type: functional; conditions: U2932, 72 h
# [5] = molecular target: Tyrosine-protein kinase JAK1 (Homo sapiens) (UniProt P23458); experiment: Inhibition of TEL-fused JAK1 (unknown origin) expressed in mouse BA/F3 cells after 72 hrs by CellTiter-Glo assay; type: cell-based
# Chain of Tyrosine-protein kinase JAK1 (Homo sapiens) (P23458 whole entry, the tested form may be a part): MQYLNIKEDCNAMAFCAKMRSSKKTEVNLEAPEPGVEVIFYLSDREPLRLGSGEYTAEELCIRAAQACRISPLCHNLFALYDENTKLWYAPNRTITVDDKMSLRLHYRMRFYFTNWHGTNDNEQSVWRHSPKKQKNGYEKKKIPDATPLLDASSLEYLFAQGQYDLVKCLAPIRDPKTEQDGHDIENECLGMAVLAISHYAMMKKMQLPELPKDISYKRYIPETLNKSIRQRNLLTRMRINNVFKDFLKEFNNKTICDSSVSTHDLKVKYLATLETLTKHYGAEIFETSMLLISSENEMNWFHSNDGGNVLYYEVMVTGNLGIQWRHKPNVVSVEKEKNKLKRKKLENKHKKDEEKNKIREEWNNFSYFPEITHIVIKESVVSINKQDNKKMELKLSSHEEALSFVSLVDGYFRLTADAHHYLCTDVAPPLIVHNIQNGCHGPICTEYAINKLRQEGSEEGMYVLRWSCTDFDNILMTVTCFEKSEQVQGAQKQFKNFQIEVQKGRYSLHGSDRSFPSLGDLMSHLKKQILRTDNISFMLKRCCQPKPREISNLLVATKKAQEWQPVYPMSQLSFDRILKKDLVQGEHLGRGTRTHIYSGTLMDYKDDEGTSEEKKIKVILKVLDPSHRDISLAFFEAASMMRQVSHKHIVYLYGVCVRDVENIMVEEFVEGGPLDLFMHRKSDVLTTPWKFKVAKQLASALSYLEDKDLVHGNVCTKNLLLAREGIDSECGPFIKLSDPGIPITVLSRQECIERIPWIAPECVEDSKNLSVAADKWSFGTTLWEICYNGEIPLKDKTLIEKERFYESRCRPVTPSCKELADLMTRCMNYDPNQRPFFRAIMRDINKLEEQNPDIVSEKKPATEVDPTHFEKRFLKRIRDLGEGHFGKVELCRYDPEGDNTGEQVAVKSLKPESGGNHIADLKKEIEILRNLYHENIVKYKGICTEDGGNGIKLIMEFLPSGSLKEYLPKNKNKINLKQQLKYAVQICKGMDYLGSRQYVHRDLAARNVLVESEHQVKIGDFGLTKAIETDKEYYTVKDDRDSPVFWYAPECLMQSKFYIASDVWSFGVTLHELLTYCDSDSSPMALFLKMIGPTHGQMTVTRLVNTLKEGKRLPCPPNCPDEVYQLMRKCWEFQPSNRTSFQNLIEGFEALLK
# NB-4 = experiment: Antiproliferative activity against human NB4 cells after 72 hrs by CellTiter-Glo assay; type: functional; conditions: NB-4, 72 h
# JVM-2 = experiment: Antiproliferative activity against human JVM2 cells after 72 hrs by CellTiter-Glo assay; type: functional; conditions: JVM-2, 72 h
# [6] = Antiproliferative activity against human PF138 cells after 72 hrs by CellTiter-Glo assay; type: functional
# HeLa = experiment: Antiproliferative activity against human HeLa cells after 72 hrs by CellTiter-Glo assay; type: functional
# U-937 = experiment: Antiproliferative activity against human U937 cells after 72 hrs by CellTiter-Glo assay; type: functional; conditions: U-937, 72 h
# Z-138 = experiment: Antiproliferative activity against human Z138 cells after 72 hrs by CellTiter-Glo assay; type: functional; conditions: Z-138, 72 h
# NCI-H358 = experiment: Antiproliferative activity against human NCI-H358 cells after 72 hrs by CellTiter-Glo assay; type: functional; conditions: NCI-H358, 72 h
# Rec1 = experiment: Antiproliferative activity against human Rec1 cells after 72 hrs by CellTiter-Glo assay; type: functional; conditions: Rec1, 72 h
# DU-145 = experiment: Antiproliferative activity against human DU145 cells after 72 hrs by CellTiter-Glo assay; type: functional; conditions: DU-145, 72 h
# A-431 = experiment: Antiproliferative activity against human A431 cells after 72 hrs by CellTiter-Glo assay; type: functional; conditions: A-431, 72 h
# [7] = Antiproliferative activity against human MOLM16 cells after 72 hrs by CellTiter-Glo assay; type: functional; conditions: MOLM16, 72 h
# OCI-AML-3 = experiment: Antiproliferative activity against human OCI-AML3 cells after 72 hrs by CellTiter-Glo assay; type: functional; conditions: OCI-AML-3, 72 h
# [8] = molecular target: Tyrosine-protein kinase JAK2 (Homo sapiens) (UniProt O60674); experiment: Inhibition of TEL-fused JAK2 (unknown origin) expressed in mouse BA/F3 cells after 72 hrs by CellTiter-Glo assay; type: cell-based
# LNCaP C4-2 = experiment: Antiproliferative activity against human C4-2 cells after 72 hrs by CellTiter-Glo assay; type: functional; conditions: LNCaP C4-2, 72 h
# Pfeiffer = experiment: Antiproliferative activity against human Pfeiffer cells after 72 hrs by CellTiter-Glo assay; type: functional
# [9] = Antiproliferative activity against human RV1 cells after 72 hrs by CellTiter-Glo assay; type: functional; conditions: RV-1, 72 h
# [10] = molecular target: Epidermal growth factor receptor (Homo sapiens) (UniProt P00533); experiment: Inhibition of TEL-fused EGFR (unknown origin) expressed in mouse BA/F3 cells after 72 hrs by CellTiter-Glo assay; type: cell-based
# Chain of Epidermal growth factor receptor (Homo sapiens) (P00533 whole entry, the tested form may be a part): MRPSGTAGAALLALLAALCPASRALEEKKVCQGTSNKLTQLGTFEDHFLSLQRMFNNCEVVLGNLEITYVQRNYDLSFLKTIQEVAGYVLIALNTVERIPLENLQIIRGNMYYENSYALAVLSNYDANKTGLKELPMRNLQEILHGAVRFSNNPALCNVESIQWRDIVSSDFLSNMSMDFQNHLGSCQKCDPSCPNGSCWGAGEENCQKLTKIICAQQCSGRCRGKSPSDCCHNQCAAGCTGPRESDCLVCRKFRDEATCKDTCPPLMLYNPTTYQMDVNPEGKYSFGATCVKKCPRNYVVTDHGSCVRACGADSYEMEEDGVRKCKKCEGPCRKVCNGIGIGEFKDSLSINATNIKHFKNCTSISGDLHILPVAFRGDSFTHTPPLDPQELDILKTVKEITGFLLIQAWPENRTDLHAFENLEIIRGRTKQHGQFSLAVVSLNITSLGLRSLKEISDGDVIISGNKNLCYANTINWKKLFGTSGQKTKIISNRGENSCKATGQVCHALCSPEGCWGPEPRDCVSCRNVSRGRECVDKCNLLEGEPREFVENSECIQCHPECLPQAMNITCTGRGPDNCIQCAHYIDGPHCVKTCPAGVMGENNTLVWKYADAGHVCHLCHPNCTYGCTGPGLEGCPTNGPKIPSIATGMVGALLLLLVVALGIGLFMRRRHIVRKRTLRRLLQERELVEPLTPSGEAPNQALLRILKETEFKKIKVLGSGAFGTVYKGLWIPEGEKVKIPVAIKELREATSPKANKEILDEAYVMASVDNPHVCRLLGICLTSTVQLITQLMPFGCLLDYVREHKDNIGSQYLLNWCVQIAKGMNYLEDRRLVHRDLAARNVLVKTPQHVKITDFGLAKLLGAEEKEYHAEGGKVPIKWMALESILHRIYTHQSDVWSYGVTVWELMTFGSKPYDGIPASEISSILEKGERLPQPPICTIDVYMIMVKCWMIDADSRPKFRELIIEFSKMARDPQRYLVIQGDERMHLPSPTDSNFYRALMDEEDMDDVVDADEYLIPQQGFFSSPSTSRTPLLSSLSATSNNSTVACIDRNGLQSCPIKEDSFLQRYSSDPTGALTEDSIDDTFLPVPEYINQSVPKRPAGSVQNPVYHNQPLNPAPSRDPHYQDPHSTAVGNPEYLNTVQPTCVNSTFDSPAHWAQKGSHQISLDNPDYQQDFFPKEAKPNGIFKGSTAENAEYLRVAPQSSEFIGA
# CMK = experiment: Antiproliferative activity against human CMK cells after 72 hrs by CellTiter-Glo assay; type: functional
# MOLM-13 = experiment: Antiproliferative activity against human MOLM13 cells after 72 hrs by CellTiter-Glo assay; type: functional; conditions: MOLM-13, 72 h
# SU-DHL-2 = experiment: Antiproliferative activity against human SUDHL2 cells after 72 hrs by CellTiter-Glo assay; type: functional; conditions: SU-DHL-2, 72 h
# HEL = experiment: Antiproliferative activity against human HEL cells after 72 hrs by CellTiter-Glo assay; type: functional
# NCI-H460 = experiment: Antiproliferative activity against human NCI-H460 cells after 72 hrs by CellTiter-Glo assay; type: functional; conditions: NCI-H460, 72 h
# A549 = experiment: Antiproliferative activity against human A549 cells after 72 hrs by CellTiter-Glo assay; type: functional; conditions: A549, 72 h
# NOMO-1 = experiment: Antiproliferative activity against human NOMO1 cells after 72 hrs by CellTiter-Glo assay; type: functional; conditions: NOMO-1, 72 h
# HL-60 = experiment: Antiproliferative activity against human HL60 cells after 72 hrs by CellTiter-Glo assay; type: functional; conditions: HL-60, 72 h
# NCI-H1975 = experiment: Antiproliferative activity against human NCI-H1975 cells after 72 hrs by CellTiter-Glo assay; type: functional; conditions: NCI-H1975, 72 h
# MOLM-14 = experiment: Antiproliferative activity against human MOLM14 cells after 72 hrs by CellTiter-Glo assay; type: functional; conditions: MOLM-14, 72 h
# K562 = experiment: Antiproliferative activity against human K562 cells after 72 hrs by CellTiter-Glo assay; type: functional; conditions: K562, 72 h
# [11] = molecular target: T2, Tyrosine-protein kinase BTK (Homo sapiens, UniProt Q06187); experiment: Irreversible inhibition of recombinant full length His-tagged human BTK expressed in baculovirus expression system using poly (4:1 Glu, Tyr) as substrate preincubated for 2 to 60 mins followed by substrate addition measured after 1 hr by ADP-glo assay
# T2 sequence (Q06187 whole entry): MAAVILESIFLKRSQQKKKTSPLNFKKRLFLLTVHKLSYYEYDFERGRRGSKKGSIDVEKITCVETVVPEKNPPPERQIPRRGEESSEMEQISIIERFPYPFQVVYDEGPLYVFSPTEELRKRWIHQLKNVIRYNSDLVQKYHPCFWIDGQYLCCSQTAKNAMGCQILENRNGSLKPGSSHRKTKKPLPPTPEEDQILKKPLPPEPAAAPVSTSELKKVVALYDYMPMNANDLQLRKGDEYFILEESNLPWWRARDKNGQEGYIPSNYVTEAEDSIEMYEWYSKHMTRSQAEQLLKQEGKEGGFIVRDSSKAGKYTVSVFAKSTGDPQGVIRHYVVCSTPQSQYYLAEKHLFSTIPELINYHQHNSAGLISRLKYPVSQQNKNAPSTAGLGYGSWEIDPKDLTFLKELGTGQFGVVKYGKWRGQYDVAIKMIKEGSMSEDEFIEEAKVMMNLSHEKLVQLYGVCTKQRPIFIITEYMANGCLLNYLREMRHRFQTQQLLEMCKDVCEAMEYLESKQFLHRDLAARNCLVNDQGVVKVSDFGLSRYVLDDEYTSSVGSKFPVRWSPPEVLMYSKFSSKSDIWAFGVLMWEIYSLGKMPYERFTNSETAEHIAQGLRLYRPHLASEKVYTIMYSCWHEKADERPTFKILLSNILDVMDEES
# [12] = molecular target: T2, Tyrosine-protein kinase BTK; experiment: Irreversible inhibition of recombinant full length His-tagged human BTK expressed in baculovirus expression system using poly (4:1 Glu, Tyr) as substrate assessed as ratio of Kinact to Ki preincubated for 2 to 60 mins followed by substrate addition measured after 1 hr by ADP-glo assay
# [13] = molecular target: T2, Tyrosine-protein kinase BTK; experiment: Inhibition of recombinant full length His-tagged human BTK expressed in baculovirus expression system using poly (4:1 Glu, Tyr) as substrate preincubated for 1 hr followed by substrate addition measured after 1 hr by ADP-glo assay
smiles,measurement,setting,value
C=CC(=O)Nc1cc(-n2c(=O)ccc3cnc4ccc(-c5ccc6c(c5)OCCO6)cc4c32)ccc1C,IC50,[1],160 nM
same,IC50,[2],192 nM
C=CC(=O)N1CCc2ccc(-n3c(=O)ccc4cnc5ccc(-c6ccc(S(=O)(=O)NC(C)(C)C)cc6)cc5c43)cc21,IC50,[1],83.6 nM
same,IC50,[2],> 10000 nM
C=CC(=O)N1CCC[C@@H](n2nc(-c3ccc(Oc4ccccc4)cc3)c3c(N)ncnc32)C1 [IBRUTINIB],GI50 at 72 h,[3],> 10000 nM
same,GI50,NALM-6,> 10000 nM
same,GI50,[4],2760 nM
same,GI50,HCT-116,> 10000 nM
same,GI50,OCI-AML2,> 10000 nM
same,GI50,NAMALVA,6000 nM
same,GI50,U2932,4000 nM
same,GI50,[5],8930 nM
same,GI50,NB-4,7500 nM
same,GI50,JVM-2,> 10000 nM
same,GI50,[6],8200 nM
same,GI50,HeLa,> 10000 nM
same,GI50,U-937,8500 nM
same,GI50,Z-138,> 10000 nM
same,GI50,NCI-H358,> 10000 nM
same,GI50,Rec1,> 10000 nM
same,GI50,DU-145,> 10000 nM
same,GI50,A-431,> 10000 nM
same,GI50,[7],4400 nM
same,GI50,OCI-AML-3,> 10000 nM
same,GI50,[8],9020 nM
same,GI50,LNCaP C4-2,> 10000 nM
same,GI50,Pfeiffer,8400 nM
same,GI50,[9],> 10000 nM
same,GI50,[10],> 10000 nM
same,GI50,CMK,> 10000 nM
same,GI50,MOLM-13,1300 nM
same,GI50,SU-DHL-2,2200 nM
same,GI50,HEL,4000 nM
same,GI50,NCI-H460,> 10000 nM
same,GI50,A549,> 10000 nM
same,GI50,NOMO-1,> 10000 nM
same,GI50,HL-60,3500 nM
same,GI50,NCI-H1975,1200 nM
same,GI50,MOLM-14,1800 nM
same,GI50,K562,> 10000 nM
C=CC(=O)Nc1cc(-n2c(=O)ccc3cnc4ccc(-c5ccsc5)cc4c32)ccc1C,IC50,[1],342 nM
same,IC50,[2],38.6 nM
C=CC(=O)Nc1cc(-n2c(=O)ccc3cnc4ccc(-c5cn[nH]c5)cc4c32)ccc1C,Ki,[11],2 nM
same,Kinact,[11],0.14 min⁻¹
same,Ratio,[12],1.17 µM⁻¹ s⁻¹
C=CC(=O)Nc1cccc(-n2c(=O)ccc3cnc4ccc(-c5ccc(N)nc5)cc4c32)c1,IC50,[1],336 nM
same,IC50,[2],654 nM
C=CC(=O)Nc1cc(-n2c(=O)ccc3cnc4ccc(-c5ccc(COc6cccc(C(F)(F)F)c6)cc5)cc4c32)ccc1C,IC50,[1],2060 nM
same,IC50,[2],650 nM
C=CC(=O)Nc1cc(-n2c(=O)ccc3cnc4ccc(-c5cnn(C)c5)cc4c32)ccc1C,IC50,[1],339 nM
same,IC50,[2],343 nM
C=CC(=O)Nc1cc(-n2c(=O)ccc3cnc4ccc(-c5ccccc5)cc4c32)ccc1C,IC50,[2],25.3 nM
C=CC(=O)Nc1cc(-n2c(=O)ccc3cnc4ccc(-c5cnc6ccccc6c5)cc4c32)ccc1C,IC50,[1],295 nM
same,IC50,[2],983 nM
C=CC(=O)N1CCc2ccc(-n3c(=O)ccc4cnc5ccc(-c6ccc(N7CCN(C)CC7)cc6)cc5c43)cc21,IC50,[1],> 10000 nM
same,IC50,[2],1560 nM
C=CC(=O)Nc1cc(-n2c(=O)ccc3cnc4ccc(/C=C/c5ccccc5)cc4c32)ccc1C,IC50,[1],607 nM
same,IC50,[2],5580 nM
C=CC(=O)Nc1cc(-n2c(=O)ccc3cnc4ccc(-c5ccoc5)cc4c32)ccc1C,IC50,[1],2090 nM
same,IC50,[2],17.4 nM
C=CC(=O)Nc1cc(-n2c(=O)ccc3cnc4ccc(-c5ccc(NC(=O)NC)cc5)cc4c32)ccc1C,IC50,[1],1130 nM
same,IC50,[2],218 nM
same,IC50,[13],79.1 nM
C=CC(=O)Nc1cc(-n2c(=O)ccc3cnc4ccc(-c5ccc(N)nc5)cc4c32)ccc1C,IC50,[1],177 nM
same,IC50,[2],177 nM
C=CC(=O)Nc1cccc(-n2c(=O)ccc3cnc4ccc(-c5cn[nH]c5)cc4c32)c1,IC50,[1],293 nM
same,IC50,[2],224 nM
C=CC(=O)N1CCc2ccc(-n3c(=O)ccc4cnc5ccc(-c6cnc7ccccc7c6)cc5c43)cc21,IC50,[1],191 nM
same,IC50,[2],983 nM
same,IC50,[13],7.15 nM
